# Measured values as given in patent US20120196853A1, “Novel Quinoline-Hepcidine Antagonists” (VIFOR (INTERNATIONAL) AG, priority 2009, published 2012).
# Target: T1, human ferroportin (Fpn-HaloTag fusion protein) (Homo sapiens, UniProt Q9NP59)
# T1 construct: expressed in transfected cells
# T1 sequence (Q9NP59 1-571): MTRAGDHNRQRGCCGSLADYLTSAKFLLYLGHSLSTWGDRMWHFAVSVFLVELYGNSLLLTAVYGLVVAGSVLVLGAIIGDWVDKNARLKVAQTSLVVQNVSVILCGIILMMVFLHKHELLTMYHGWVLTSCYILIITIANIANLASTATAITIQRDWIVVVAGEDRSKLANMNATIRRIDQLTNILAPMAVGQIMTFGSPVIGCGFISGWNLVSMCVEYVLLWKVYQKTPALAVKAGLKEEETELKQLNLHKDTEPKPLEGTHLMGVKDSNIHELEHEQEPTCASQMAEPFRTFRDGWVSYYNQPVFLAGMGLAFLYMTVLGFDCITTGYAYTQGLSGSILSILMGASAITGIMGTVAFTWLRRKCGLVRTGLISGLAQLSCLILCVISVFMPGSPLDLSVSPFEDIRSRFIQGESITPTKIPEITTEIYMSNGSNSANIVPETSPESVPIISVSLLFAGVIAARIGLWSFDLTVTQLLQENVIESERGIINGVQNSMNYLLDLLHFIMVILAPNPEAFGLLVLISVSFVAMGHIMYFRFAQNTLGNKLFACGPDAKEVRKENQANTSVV
# Assay: ferroportin internalization assay (inhibition of hepcidin-induced internalization of Fpn, MDCK-FPN-HaloTag cells)
# Type: cell-based
# Conditions: for IC50: 100 nM hepcidin, overnight, dilution series 0.04 to 40 μM; for I [%] (median inhibition [%] at 10 μM substance conc.): hepcidin-induced Fpn internalization
# Procedure: The hepcidin-antagonistic action of the quinoline compounds of the present invention was determined by means of the “ferroportin internalization assay” described in the following.
# Organic compounds of low molecular weight which counteract the biological actions of hepcidin on its receptor, the iron exporter ferroportin (Fpn), were identified on the basis of their ability to inhibit hepcidin-induced internalization of Fpn in living cells. For this purpose, a stable cell line (Madin-Darby canine kidney, MDCK) was produced which constitutively expresses human ferroportin fused recombinantly at its C terminus with a fluorescent reporter protein (HaloTag®, Promega Corp.). The internalization of Fpn was monitored by labelling these cells with fluorescent ligands (HaloTag®-TMR, tetramethylrhodamine) which join covalently on to the HaloTag reporter gene fused with the Fpn. […] Optimized image analysis algorithms were used to ascertain the cell surface and to quantify the corresponding membrane fluorescence associated with the Fpn-HaloTag fusion protein. This assay allows a quantitative image-based analysis in order to quickly evaluate compounds which can block hepcidin-induced internalization of Fpn. This assay is a direct in vitro pendant of the in vivo action mechanism proposed for medicament candidates and is therefore suitable as an initial assay with a high throughput for identifying compounds which counteract the action of hepcidin on its receptor ferroportin.
# • 7,500 cells per well (MDCK-FPN-HaloTag) were transinoculated in 50 μl DMEM medium (Dulbeccos modified Eagle medium with 10% foetal bovine serum (FBS), which contained 1% penicillin, 1% streptomycin and 450 μg/ml of G-418) in microtitre plates with 384 wells, (384 Cell carrier plates, Perkin Elmer, cat. no. 6007430), followed by incubation overnight at 37° C./5% CO2. • The volume of the medium was reduced to 10 μl, and 10 μl of 5 μM HaloTag-TMR ligands (Promega, cat. no. G 8251) were added in DMEM medium in order to stain the Fpn-HaloTag fusion protein. • 15 min incubation at 37° C./5% CO2 • The HaloTag-TMR ligand was removed and the cells were washed with fresh DMEM medium and the volume was reduced to 20 μl of DMEM medium. • 3 μl per well of a solution of the test compound (dissolved DMSO) were added ([…]). • 7 μl of […] hepcidin (Peptides International, cat. no. PLP-4392-s, 100 μM stock solution diluted in water in DMEM medium) were added per well up to a final hepcidin concentration of 100 nM. • The cells were incubated overnight at 37° C./5% CO2. • The cells were fixed by adding paraformaldehyde (PFA, Electron Microscopy Sciences, cat. no. 15710-S) directly to the cells up to a final concentration of 4%, followed by incubation at room temperature for 15-20 minutes. • The PFA solution was removed and the cells were washed with PBS (phosphate-buffered saline solution), in each case 30 μl remaining in the plate. • 20 μl of Draq5 (Biostatus, cat. no. DR 51000) were added up to a final concentration of 2.5 μM in order to stain the cell nuclei, and the plates were sealed with a foil plate seal. • The plates were analysed with the Opera Plate Imager (Opera Confocal Plate Imager, Perkin Elmer) with 7 images per well; 440 ms exposure time per image, […] focal point height.
SMILES,IC50 [µM],I [%] (median inhibition [%] at 10 μM substance conc.)
"COc1cc(C(=O)Oc2c(CN3CCOCC3)cc(Cl)c3cccnc23)cc(OC)c1OC [Example 4, 3,4,5-Trimethoxy-benzoic acid 5-chloro-7-morpholin-4-ylmethyl-quinolin-8-yl ester]",< 50,<50
"Oc1c(CN2CCOCC2)ccc2cccnc12 [Example 22, 7-Morpholin-4-yl-methyl-quinolin-8-ol]",< 50,–
"Oc1c(C(c2ccccc2Cl)N2CCOCC2)ccc2cccnc12 (centres unmarked) [Example 13, 7-[(2-Chloro-phenyl)-morpholin-4-yl-methyl]-quinolin-8-ol]",< 50,–
"O=C(Oc1c(CN2CCOCC2)cc(Cl)c2cccnc12)c1ccco1 [Example 3, Furan-2-carboxylic acid 5-chloro-7-morpholin-4-ylmethyl-quinolin-8-yl ester]",< 50,<50
"Oc1c(C(c2ccccn2)N2CCN(c3ccccn3)CC2)ccc2cccnc12 (centres unmarked) [Example 37, 7-[Pyridin-2-yl-(4-pyridin-2-yl-piperazin-1-yl)-methyl]-quinolin-8-ol]",< 50,–
"Oc1c(C(c2ccccn2)N2CCC(Cc3ccccc3)CC2)ccc2cccnc12 (centres unmarked) [Example 7, 7-[(4-Benzyl-piperidin-1-yl)-pyridin-2-yl-methyl]-quinolin-8-ol]",< 50,–
"Oc1c(C(c2ccccn2)N2CCN(Cc3ccccc3)CC2)ccc2cccnc12 (centres unmarked) [Example 34, 7-[(4-Benzyl-piperazin-1-yl)-pyridin-2-yl-methyl]quinolin-8-ol]",< 50,–
"COc1ccc(C(c2ccc3cccnc3c2O)N2CCOCC2)cc1 (centres unmarked) [Example 41, 7-[(4-Methoxy-phenyl)-morpholin-4-yl-methyl]-quinolin-8-ol]",< 50,–
"CC1CN(C(c2ccncc2)c2ccc3cccnc3c2O)CC(C)O1 (centres unmarked) [Example 18, 7-[(2,6-Dimethyl-morpholin-4-yl)-pyridin-4-yl-methyl]-quinolin-8-ol]",< 50,–
CC1CN(C(c2ccccn2)c2cc(Cl)c3cccnc3c2O)CC(C)O1 (centres unmarked) [Example 33],< 50,–
"Cc1ccccc1C(c1ccc2cccnc2c1O)N1CCOCC1 (centres unmarked) [Example 12, 7-(Morpholin-4-yl-o-tolyl-methyl)-quinolin-8-ol]",< 50,–
"Cc1ccc(C(c2ccc3cccnc3c2O)N2CCOCC2)cc1 (centres unmarked) [Example 9, 7-(Morpholin-4-yl-p-tolyl-methyl)-quinolin-8-ol]",< 50,–
"Oc1c(C(c2ccncc2)N2CCOCC2)ccc2cccnc12 (centres unmarked) [Example 30, 7-(Morpholin-4-yl-pyridin-4-yl-methyl)-quinolin-8-ol]",< 50,–
"Oc1c(C(Nc2ccccn2)c2cccnc2)cc(Cl)c2cccnc12 (centres unmarked) [Example 6, 5-Chloro-7-[pyridin-3-yl-(pyridin-2-ylamino)-methyl]-quinolin-8-ol]",< 50,<50
"CCOC(=O)N1CCN(C(c2ccccn2)c2ccc3cccnc3c2O)CC1 (centres unmarked) [Example 26, 4-[(8-Hydroxy-quinolin-7-yl)-pyridin-2-yl-methyl]-piperazine-1-carboxylic acid ethyl ester]",< 50,–
"COc1ccc(C(c2ccc3cccnc3c2O)N2CCOCC2)cn1 (centres unmarked) [Example 11, 7-[(6-Methoxy-pyridin-3-yl)-morpholin-4-yl-methyl]-quinolin-8-ol]",< 50,–
Oc1c(C(c2ccc(F)cc2)N2CCOCC2)ccc2cccnc12 (centres unmarked) [Example 28],< 50,–
"Oc1c(C(c2cnccn2)N2CCOCC2)ccc2cccnc12 (centres unmarked) [Example 15, 7-(Morpholin-4-yl-pyrazin-2-yl-methyl)-quinolin-8-ol]",< 50,–
"CC1CN(C(c2ccc(F)cc2)c2ccc3cccnc3c2O)CC(C)O1 (centres unmarked) [Example 20, 7-[(2,6-Dimethyl-morpholin-4-yl)-(4-fluoro-phenyl)-methyl]-quinolin-8-ol]",< 50,–
"CN(Cc1ccccc1)C(c1ccncc1)c1ccc2cccnc2c1O (centres unmarked) [Example 19, 7-[(Benzyl-methyl-amino)-pyridin-4-yl-methyl]-quinolin-8-ol]",< 50,–
"Oc1c(C(c2ccccn2)N2CCCCC2)ccc2cccnc12 (centres unmarked) [Example 27, 7-(Piperidin-1-yl-pyridin-2-yl-methyl)-quinolin-8-ol]",< 50,–
"Oc1c(C(c2ccccn2)N2CCOCC2)ccc2cccnc12 (centres unmarked) [Example 1, 7-(Morpholin-4-yl-pyridin-2-yl-methyl)-quinolin-8-ol]",< 50,>50
"COc1cc(COc2c(CN3CCOCC3)ccc3cccnc23)cc(OC)c1OC [Example 23, 7-Morpholin-4-ylmethyl-8-(3,4,5-trimethoxybenzyloxy)-quinoline]",> 100,–

# Now from value to compound:
IC50 [µM],I [%] (median inhibition [%] at 10 μM substance conc.),SMILES
< 50,–,"Oc1c(C(c2ccccn2)N2CCOCC2)cc(Cl)c2cccnc12 (centres unmarked) [Example 25, 5-Chloro-7-(morpholin-4-yl-pyridin-2-yl-methyl)-quinolin-8-ol]"
< 50,–,"COc1ccccc1C(c1ccc2cccnc2c1O)N1CCOCC1 (centres unmarked) [Example 14, 7-[(2-Methoxy-phenyl)-morpholin-4-yl-methyl]-quinolin-8-ol]"
< 50,–,OCCN1CCN(C(c2ccccn2)c2ccc3cccnc3c2O)CC1 (centres unmarked) [Example 8]
< 50,–,"Oc1c(C(c2ccccn2)N2CCC(c3ccccc3F)CC2)ccc2cccnc12 (centres unmarked) [Example 36, 7-{[4-(2-Fluoro-phenyl)-piperidin-1-yl]-pyridin-2-yl-methyl}-quinolin-8-ol]"
> 100,–,"Oc1c(CN2CCOCC2)cc(CN2CCOCC2)c2cccnc12 [Example 38, 5,7-Bis-morpholin-4-ylmethyl-quinolin-8-ol]"
< 50,–,"Oc1c(CN2CCOCC2)cc(Cl)c2cccnc12 [Example 31, 5-Chloro-7-morpholin-4-ylmethyl-quinolin-8-ol]"
< 50,–,"Oc1c(C(c2cccs2)N2CCOCC2)ccc2cccnc12 (centres unmarked) [Example 21, 7-(Morpholin-4-yl-thiophen-2-yl-methyl)-quinolin-8-ol]"
< 50,<50,"Oc1c(C(c2ccc(Cl)cc2)N2CCOCC2)cc(Cl)c2cccnc12 (centres unmarked) [Example 2, 5-Chloro-7-[(4-chloro-phenyl)-morpholin-4-yl-methyl]-quinolin-8-ol]"
< 50,–,"CN1CCN(C(c2ccccn2)c2ccc3cccnc3c2O)CC1 (centres unmarked) [Example 35, 7-[(4-Methyl-piperazin-1-yl)-pyridin-2-yl-methyl]-quinolin-8-ol]"
< 50,–,"Oc1c(C(c2ccc(Cl)cc2)N2CCOCC2)ccc2cccnc12 (centres unmarked) [Example 40, 7-[(4-Chloro-phenyl)-morpholin-4-yl-methyl]-quinolin-8-ol]"
< 50,–,"Oc1c(C(NCc2ccccc2)c2ccncc2)ccc2cccnc12 (centres unmarked) [Example 17, 7-(Benzylamino-pyridin-4-yl-methyl)-quinolin-8-ol]"
< 50,–,"NC(=O)c1ccc(C(c2ccc3cccnc3c2O)N2CCOCC2)cc1 (centres unmarked) [Example 24, 4-[(8-Hydroxy-quinolin-7-yl)-morpholin-4-yl-methyl]-benzamide]"
< 50,–,"Oc1c(C(c2cccnc2)N2CCOCC2)ccc2cccnc12 (centres unmarked) [Example 29, 7-(Morpholin-4-yl-pyridin-3-yl-methyl)-quinolin-8-ol]"
